From patent US8334286B2, “Substituted pyrrolo[1,2-A] pyrazines, compositions containing these, processes of making these, and uses thereof” (Neurotune AG, priority 2008, dated 2012) come the findings set out here.

What is called melting point is the temperature of the solid-liquid transition.

Data set [1] has as its system paclitaxel-induced hyperalgesia. The experiment in a line: Paclitaxel-induced hyperalgesia in the rat (paw-pressure test). To be noted: PCT-treated rats, 3 mg/kg i.v., mean ± S.E.M.; for Mechanical threshold (g), After Treatment 15 min: 15 min after treatment; for Mechanical threshold (g), After Treatment 30 min: 30 min after treatment; for Mechanical threshold (g), After Treatment 45 min: 45 min after treatment. Format: in vivo. The protocol: In all methods, paw mechanical sensitivity was determined using either the paw pressure test or the incapacitance test. The paw pressure test utilizes a Randall & Selitto apparatus, exerting a force that increases at constant rate (32 g/s). The stimulus at which rats withdrawn the paw was evaluated before and at different times after treatment. Results represent the mean of mechanical thresholds expressed as grams. To avoid any possible damage to the animal paw the maximum applied force was fixed at 240 g. Peripheral neuropathy is induced by repeated administration of vincristine, paclitaxel or oxaliplatin to adult male Sprague-Dawley rats (150-200 g, supplier Harlan). The following protocols were used respectively: • Vincristine: the drug was injected by intravenous route at the dose of 150 μg/kg. The treatment was performed every 2 days, for 5 times, until a cumulative dose of 750 μg/kg was reached. Paw pressure test was performed 4 days after the last injection (Marchand F. et al. 2003, Brain Res. 980:117-120). • Paclitaxel: paclitaxel (PCT) neuropathy was induced by intraperitoneal administration of 0.5 mg/kg once a day, on days 1, 3, 5 and 8. Cumulative paclitaxel dose was 2 mg/kg. The pharmacological test was performed 14-18 days after the last paclitaxel injection (Polomano R. C. et al. 2001, Pain 94:293-304). • Oxaliplatin: 2.4 mg/kg were injected by intraperitoneal route for 5 consecutive days followed by 2 days suspension (one cicle). A total of 3 cycles was performed, reaching a cumulative dose of 36 mg/kg (Cavaletti G. 2001, Eur. J. Cancer 37:2457-2463). The test was performed 48 h after the last oxaliplatin injection. 2. Osteoarthritic Pain

The subject of data set [2] is MIA-induced hyperalgesia. The experiment in a line: MIA-induced hyperalgesia in the rat (paw-pressure test), osteoarthritic pain. The conditions noted are these: MIA-treated rats, mean ± S.E.M.; for Mechanical threshold (g), After Treatment 15 min / Mechanical threshold (g), After Treatment 30 min / Mechanical threshold (g), After Treatment 45 min: 3 mg/kg i.v.; for Mechanical threshold (g), After Treatment 15 min: 15 min after treatment; for Mechanical threshold (g), After Treatment 30 min: 30 min after treatment; for Mechanical threshold (g), After Treatment 45 min: 45 min after treatment; for Mechanical threshold (g), Before Treatment basal: group 3 mg/kg i.v. It is filed as in vivo. The protocol: In all methods, paw mechanical sensitivity was determined using either the paw pressure test or the incapacitance test. The paw pressure test utilizes a Randall & Selitto apparatus, exerting a force that increases at constant rate (32 g/s). The stimulus at which rats withdrawn the paw was evaluated before and at different times after treatment. Results represent the mean of mechanical thresholds expressed as grams. To avoid any possible damage to the animal paw the maximum applied force was fixed at 240 g. Osteoarthritis was induced by a single administration of 2 mg (in a volume of 25 μl) of monosodium iodoacetate (MIA) into the left knee joint of anaesthetized rats (male adult Sprague Dawley rats, 150-200 g, supplier Harlan) (Fernihough J. 2004, Pain 112:83-93). This treatment induces the progressive degeneration of the joint and the development of hyperalgesia, mimicking at the histological and behavioral levels what observed in humans. Pharmacological test was performed 7 days after treatment.

Data set [3] has as its system MIA-induced hyperalgesia. The experiment in a line: MIA-induced hyperalgesia in the rat (incapacitance test), osteoarthritic pain. It is filed as in vivo. The conditions noted are these: MIA-treated rats, grams of the right paw, mean ± S.E.M. The protocol:
In all methods, paw mechanical sensitivity was determined using either the paw pressure test or the incapacitance test. […] Osteoarthritis was induced by a single administration of 2 mg (in a volume of 25 μl) of monosodium iodoacetate (MIA) into the left knee joint of anaesthetized rats (male adult Sprague Dawley rats, 150-200 g, supplier Harlan) (Fernihough J. 2004, Pain 112:83-93). This treatment induces the progressive degeneration of the joint and the development of hyperalgesia, mimicking at the histological and behavioral levels what observed in humans. Pharmacological test was performed 7 days after treatment.

[4] abbreviates: 3 mg/kg i.v., 15 min after treatment.
Where [5] appears, read: 3 mg/kg i.v., 30 min after treatment.
Where [6] appears, read: 3 mg/kg i.v., 45 min after treatment.
[7] abbreviates: before treatment (basal), group 3 mg/kg i.v.

`O=C1CC[C@@H]2CN(S(=O)(=O)c3cccc(F)c3)CCN12` [Example 4, (R)-(+)2-(3-fluorophenylsulfonyl)hexahydro pyrrolo[1,2-a]pyrazin-6(7H)-one] yielded a melting point of 179 to 180 °C. Besides, in data set [1], the “Mechanical threshold (g), After Treatment 15 min” value is 51.1 ± 2.4 g; the “Mechanical threshold (g), After Treatment 30 min” value is 55.8 ± 2.4 g; the “Mechanical threshold (g), After Treatment 45 min” value is listed as 47.3 ± 2.9 g. In the data set with MIA-induced hyperalgesia [2], the “Mechanical threshold (g), After Treatment 15 min” value is recorded as 41.4 ± 3.1 g; the “Mechanical threshold (g), After Treatment 30 min” value was 53.0 ± 3.5 g; the “Mechanical threshold (g), After Treatment 45 min” value is listed as 42.6 ± 3.2 g; the “Mechanical threshold (g), Before Treatment basal” value turned out to be 23.1 ± 2.5 g. Besides, the “Weight borne on right hind paw” value in the data set with MIA-induced hyperalgesia [3] (setting [4]) was determined as 90.1 ± 8.2 g. For the same molecule, the “Weight borne on right hind paw” value in the data set on MIA-induced hyperalgesia [3] (setting [5]) worked out at 96.2 ± 7.5 g. Moreover, in the data set on MIA-induced hyperalgesia [3] (setting [6]), the “Weight borne on right hind paw” value is 72.5 ± 7.2 g. Besides, in the data set on MIA-induced hyperalgesia [3] (setting [7]), the “Weight borne on right hind paw” value turned out to be 41.4 ± 5.8 g.
For `O=C1CC[C@@H]2CN(S(=O)(=O)c3ccccc3C(F)(F)F)CCN12` [Example 8, (R)-(+)-2-(2-(trifluoromethyl)phenylsulfonyl) hexahydropyrrolo [1,2-a]pyrazin-6(7H)-one], the melting point was in the range of 157 to 158 °C. Also, in data set [1], the “Mechanical threshold (g), After Treatment 15 min” value is on record as 42.2 ± 3.0 g; the “Mechanical threshold (g), After Treatment 30 min” value is 39.3 ± 3.2 g; the “Mechanical threshold (g), After Treatment 45 min” value is on record as 37.5 ± 3.2 g. Further, in the data set with MIA-induced hyperalgesia [2], the “Mechanical threshold (g), After Treatment 15 min” value was determined as 59.4 ± 1.6 g; the “Mechanical threshold (g), After Treatment 30 min” value amounted to 63.8 ± 2.6 g; the “Mechanical threshold (g), After Treatment 45 min” value is on record as 50.2 ± 3.7 g; the “Mechanical threshold (g), Before Treatment basal” value is listed as 22.6 ± 2.0 g. In addition, the “Weight borne on right hind paw” value in the data set with MIA-induced hyperalgesia [3] (setting [4]) amounted to 119.0 ± 7.5 g. Further, the “Weight borne on right hind paw” value in the data set with MIA-induced hyperalgesia [3] (setting [5]) amounted to 113.5 ± 6.6 g. In the data set on MIA-induced hyperalgesia [3] (setting [6]), the “Weight borne on right hind paw” value amounted to 72.9 ± 6.3 g. In the data set on MIA-induced hyperalgesia [3] (setting [7]), the “Weight borne on right hind paw” value was 40.4 ± 8.2 g.
